Assay results published in ChEMBL document CHEMBL1136439, “Synthesis and bioactivities of nitronyl nitroxide and RGD containing pseudopeptides” (2003).
Where a SMILES comes first, the peptide text is derived from it. The star is where a group is joined. X1 = CC1(C)N(O)C(c2ccc(OCC(=O)*)cc2)=[N+]([O-])C1(C)C

Experiments:
Oryctolagus cuniculus [1] = species: Oryctolagus cuniculus; experiment: Maximum rate of ADP induced platelet aggregation was determined in rabbit blood at a dose of 10-6 mol/L (in vitro); assay type: functional
Rattus norvegicus [2] = experiment: Effect on the dry thrombus weight in male wistar rat was determined(in vivo); assay type: functional
Oryctolagus cuniculus [3] = species: Oryctolagus cuniculus; experiment: Maximum rate of ADP induced platelet aggregation was determined in rabbit blood at a dose of 10-7 mol/L (in vitro); assay type: functional
Oryctolagus cuniculus [4] = species: Oryctolagus cuniculus; experiment: Maximum rate of PAF induced platelet aggregation was determined in rabbit blood at a dose of 10-6 mol/L (in vitro); assay type: functional
Oryctolagus cuniculus [5] = species: Oryctolagus cuniculus; experiment: Maximum rate of PAF induced platelet aggregation was determined in rabbit blood at a dose of 10-5 mol/L (in vitro); assay type: functional
Rattus norvegicus [6] = experiment: Effect on the wet thrombus weight in male wistar rat was determined(in vivo); assay type: functional; set-up: unit not given beside the values
Oryctolagus cuniculus [7] = species: Oryctolagus cuniculus; experiment: Maximum rate of PAF induced platelet aggregation was determined in rabbit blood at a dose of 10-7 mol/L (in vitro); assay type: functional
Oryctolagus cuniculus [8] = species: Oryctolagus cuniculus; experiment: Maximum rate of ADP induced platelet aggregation was determined in rabbit blood at a dose of 10-5 mol/L (in vitro); assay type: functional
Rattus norvegicus [9] = species: Rattus norvegicus; experiment: Compound tested for inhibition of Ach-induced vasorelaxation was determined in rat aortic strips; assay type: functional, Aorta; set-up: concentration or dose not given beside the values

Row | Structure (SMILES) | Am (Oryctolagus cuniculus [1]) [%] | Activity (Rattus norvegicus [2]) | Am (Oryctolagus cuniculus [3]) [%] | Am (Oryctolagus cuniculus [4]) [%] | Am (Oryctolagus cuniculus [5]) [%] | Activity (Rattus norvegicus [6]) | Am (Oryctolagus cuniculus [7]) [%] | Am (Oryctolagus cuniculus [8]) [%] | Inhibition (Rattus norvegicus [9]) [%]
1 | N=C(N)NCCC[C@H](N)C(=O)NCC(=O)N[C@@H](CC(=O)O)C(=O)N[C@@H](CO)C(=O)O | 40.14 | 6.68 | 53.55 | 37.1 | 22.66 | 36.96 | 54.21 | 17.02 | 3.2
2 | CC1(C)N(O)C(c2ccc(OCC(=O)N[C@@H](CCCN=C(N)N)C(=O)NCC(=O)N[C@@H](CC(=O)O)C(=O)N[C@@H](CO)C(=O)O)cc2)=[N+]([O-])C1(C)C (X1-RGDS-OH) | 40.05 | 5.08 | 51.46 | 35.11 | 22.05 | 32.09 | 52.1 | 16.91 | 88.9
3 | N=C(N)NCCC[C@H](N)C(=O)NCC(=O)N[C@@H](CC(=O)O)C(=O)N[C@@H](Cc1ccccc1)C(=O)O (H-RGDF-OH) | 24.15 | 3.94 | 33.76 | 25.18 | 10.22 | 25.61 | 51.88 | 10.13 | 2.6
4 | CC1(C)N(O)C(c2ccc(OCC(=O)O)cc2)=[N+]([O-])C1(C)C | 51.96 | 6.17 | 54.68 | 52.98 | 52.92 | 38.1 | 54.25 | 51.6 | 99.2
5 | CC(=O)Oc1ccccc1C(=O)O [ASPIRIN] | 42.58 | 3.99 | 54.89 | 36.98 | 29.99 | 28.11 | 53.42 | 30.01 | –
6 | CC1(C)N(O)C(c2ccc(OCC(=O)N[C@@H](CCCN=C(N)N)C(=O)NCC(=O)N[C@@H](CC(=O)O)C(=O)N[C@@H](Cc3ccccc3)C(=O)O)cc2)=[N+]([O-])C1(C)C (X1-RGDF-OH) | 20.66 | 3.16 | 35.25 | 24.26 | 9.98 | 24.3 | 50.02 | 10.21 | 88.9
7 | CC(C)[C@H](NC(=O)[C@H](CC(=O)O)NC(=O)CNC(=O)[C@H](CCCN=C(N)N)NC(=O)COc1ccc(C2=[N+]([O-])C(C)(C)C(C)(C)N2O)cc1)C(=O)O (X1-RGDV-OH) | 24.99 | 4.07 | 49.98 | 33.22 | 20.45 | 29.49 | 50.88 | 11.85 | 91.2
8 | CC(C)[C@H](NC(=O)[C@H](CC(=O)O)NC(=O)CNC(=O)[C@@H](N)CCCNC(=N)N)C(=O)O (H-RGDV-OH) | 28.9 | 5.13 | 50.06 | 35.11 | 20.5 | 32.62 | 52.66 | 12.07 | 2.4
